Source: US6602896B1, “p38MAPK inhibitor and uses thereof” (The Board of Trustees of the University of Arkansas, priority 1999, dated 2003)

System: LDL receptor expression
Assay: Northern blotting of LDL receptor mRNA in HeLa cells
Assay type: cell-based
Conditions: SB202190 (2.5 μM) 4 h
Procedure: PD98059 was added 30 min prior to addition of SB202190. After the indicated times, total RNA was isolated and subjected to Northern blotting. […] Total RNA was isolated using TRIzol, and Northern blotting was done essentially as described earlier (43, 44). Briefly, 20 μg total cellular RNA was fractionated on 1% formaldehyde agarose gel and transferred to Zeta Probe membrane by capillary blotting. RNA blots were hybridized with LDL receptor and squalene synthase specific single-stranded M13 probes labeled with [α-^32P ]dCTP. Hybridized filters were washed and exposed to Kodak X-ray film. The relative intensities of specific bands were determined densitometrically within the linear range of the film on a model 300A laser densitometer (Molecular […], Calif.) with Image Quant software. LDL receptor mRNA was normalized to squalene synthase (SS) (included in this study) or to α-actin (data not shown) mRNA level, and data for each point were plotted as the percentage of LDL receptor mRNA as compared to controls.

In the case of Oc1ccc(-c2nc(-c3ccc(F)cc3)c(-c3ccncc3)[nH]2)cc1 [SB202190, 4-(4-Fluorophenyl)-2-(4-hydroxyphenyl)-5-(4-pyridyl) 1H-imidazole], the “LDL receptor expression in HeLa cells” value is reported as “caused a increase in LDL receptor expression”.
